Patent US7932262B2 (Novartis AG, priority 2006, dated 2011)
pEC50, pIC50: −log10 of the molar value. Where two headings read alike, the source gives them in different places.

How the values were obtained:
PC-3 cells = test: Cell Proliferation Assay (Cell Titer Glo), PC-3 cell line; format: cell-based; settings: Homo sapiens, read-out: CPEC50 PC3
Procedure, shortened: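 PC-3 cells, 1000 cells/well, left to adhere 3-5 h, then exposed for 3 days at 37° C to compounds as 1:3 serial dilutions from 500× DMSO stocks diluted in growth medium. Medium then replaced with fresh medium and viability read by Cell Titer Glo luminescence.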

PDK1 kinase = target: T1, PDK1 kinase (Homo sapiens, UniProt O15530); test: PDK1 Kinase Alpha Screen Assay; format: biochemical; settings: read-out: PDK1 IC50
T1 sequence (O15530 1-556): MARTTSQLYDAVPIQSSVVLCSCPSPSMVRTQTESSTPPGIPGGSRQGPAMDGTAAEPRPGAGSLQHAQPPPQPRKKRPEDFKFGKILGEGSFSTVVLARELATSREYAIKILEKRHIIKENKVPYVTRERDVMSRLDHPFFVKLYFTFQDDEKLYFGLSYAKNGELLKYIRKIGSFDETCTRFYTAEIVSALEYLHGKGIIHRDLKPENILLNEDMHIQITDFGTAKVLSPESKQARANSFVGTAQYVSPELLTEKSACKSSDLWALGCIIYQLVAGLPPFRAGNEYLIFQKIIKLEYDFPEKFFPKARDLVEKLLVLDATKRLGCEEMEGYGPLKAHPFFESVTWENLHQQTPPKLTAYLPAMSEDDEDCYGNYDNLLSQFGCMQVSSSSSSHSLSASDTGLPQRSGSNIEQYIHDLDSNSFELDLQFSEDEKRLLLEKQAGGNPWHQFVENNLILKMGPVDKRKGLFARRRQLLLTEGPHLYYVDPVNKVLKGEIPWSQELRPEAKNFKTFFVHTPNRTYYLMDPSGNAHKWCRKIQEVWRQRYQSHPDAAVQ
Procedure, shortened: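 Biotinylated PDK1-4 peptide (50 nM) phosphorylated by PDK1 with 10 uM ATP in pH 7.5 Tris/MgCl2/DTT buffer, 2.5% DMSO, for 3-18 hours. EDTA stop, then AlphaScreen detection with phospho-(Ser/Thr) PKA substrate antibody and protein A/streptavidin beads after overnight room-temperature development.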

[1] = PC-3, Cell Proliferation Assay, PC3 cells

| pEC50 (PC-3 cells; [1]) | pIC50 (PDK1 kinase; PDK1 Kinase Alpha Screen Assay) | pEC50 (PC-3 cells; PC-3, PC3 cells) | pIC50 (PDK1 kinase) | SMILES |
| --- | --- | --- | --- | --- |
| > 5.30 | > 5.30 |  |  | CC(C)Cn1cc(-c2ccc3cnc(Nc4ccc(S(=O)(=O)NCCCN5CCCC5)cc4)nc3c2)cn1 [Compound 709, 4-(7-(1-isobutyl-1H-pyrazol-4-yl)quinazolin-2-ylamino)-N-(3-(pyrrolidin-1-yl)propyl)benzenesulfonamide] |
| > 5.30 | > 5.30 |  |  | CC(C)Cn1cc(-c2ccc3cnc(Nc4ccc(S(=O)(=O)NCCN5CCOCC5)cc4)nc3c2)cn1 [Compound 710, 44-(7-(1-isobutyl-1H-pyrazol-4-yl)quinazolin-2-ylamino)-N-(2-morpholinoethyl)benzenesulfonamide] |
| > 5.30 | > 5.30 |  |  | CC(C)Cn1cc(-c2ccc3cnc(Nc4ccc(S(=O)(=O)NCCN5CCCCC5)cc4)nc3c2)cn1 [Compound 711, 4-(7-(1-isobutyl-1H-pyrazol-4-yl)quinazolin-2-ylamino)-N-(2-(piperidin-1-yl)ethyl)benzenesulfonamide] |
| > 5.30 | > 5.30 |  |  | CC(C)Cn1cc(-c2ccc3cnc(Nc4ccc(S(=O)(=O)NCCN5CCN(C)CC5)cc4)nc3c2)cn1 [Compound 712, 4-(7-(1-isobutyl-1H-pyrazol-4-yl)quinazolin-2-ylamino)-N-(2-(4-methylpiperazin-1-yl)ethyl)benzenesulfonamide] |
| > 5.30 | > 5.30 |  |  | CC(C)Cn1cc(-c2ccc3cnc(Nc4ccc(S(=O)(=O)NCCN5CCCC5)cc4)nc3c2)cn1 [Compound 713, 4-(7-(1-isobutyl-1H-pyrazol-4-yl)quinazolin-2-ylamino)-N-(2-(pyrrolidin-1-yl)ethyl)benzenesulfonamide] |
| > 5.30 | > 5.30 |  |  | C#Cc1cc2cnc(Nc3ccc(S(N)(=O)=O)cc3)nc2cc1OC1CCN(C(C)C)CC1 [Compound 714, 4-(6-ethynyl-7-(1-isopropylpiperidin-4-yloxy)quinazolin-2-ylamino)benzenesulfonamide] |
|  |  | > 5.30 | > 5.30 | Cn1cc(-c2cc(Cl)cc3cnc(Nc4ccc(S(N)(=O)=O)cc4)nc23)cn1 [Compound 926, 4-(6-chloro-8-(1-methyl-1H-pyrazol-4-yl)quinazolin-2-ylamino)benzenesulfonamide] |
|  |  | > 5.30 | > 5.30 | NS(=O)(=O)c1ccc(Nc2ncc3cc(Cl)cc(-c4ccc(NCCN5CCCC5)nc4)c3n2)cc1 [Compound 927, 4-(6-choro-8-(6-(2-(pyrrolidin-1-yl)ethylamino)pyridin-3-yl)quinazolin-2-ylamino)benzenesulfonamide] |
|  |  | > 5.30 | > 5.30 | Nc1ncc(-c2cccc3cnc(Nc4ccc(S(N)(=O)=O)cc4)nc23)cc1C(F)(F)F [Compound 929, 4-(8-(6-amino-5-(trifluoromethyl)pyridin-3-yl)quinazolin-2-ylamino)benzenesulfonamide] |
|  |  | > 5.30 | > 5.30 | Nc1cc(C(F)(F)F)c(-c2cccc3cnc(Nc4ccc(S(N)(=O)=O)cc4)nc23)cn1 [Compound 930, 4-(8-(6-amino-4-(trifluoromethyl)pyridin-3-yl)quinazolin-2-ylamino)benzenesulfonamide] |
|  |  | 5.00 to 5.30 | > 5.30 | Cn1cc(-c2cccc3cnc(Nc4ccc(S(N)(=O)=O)cc4)nc23)cn1 [Compound 931, 4-(8-(1-methyl-1H-pyrazol-4-yl)quinazolin-2-ylamino)benzenesulfonamide] |
|  |  | 5.00 to 5.30 | > 5.30 | NS(=O)(=O)c1ccc(Nc2ncc3cccc(CNCCN4CCCC4)c3n2)cc1 [Compound 935, 4-(8-((2-(pyrrolidin-1-yl)ethylamino)methyl)quinazolin-2-ylamino)benzenesulfonamide] |
|  |  | > 5.30 | > 5.30 | CN(C)[C@H]1CCN(Cc2cccc3cnc(Nc4ccc(S(N)(=O)=O)cc4)nc23)C1 [Compound 936, (S)-4-(8-((3-(dimethylamino)pyrrolidin-1-yl)methyl)quinazolin-2-ylamino)benzenesulfonamide] |
|  |  | 5.00 to 5.30 | > 5.30 | CN1CCC(NCc2cccc3cnc(Nc4ccc(S(N)(=O)=O)cc4)nc23)CC1 [Compound 937, 4-(8-((1-methylpiperidin-4-ylamino)methyl)quinazolin-2-ylamino)benzenesulfonamide] |
|  |  | 5.00 to 5.30 | > 5.30 | CN(C)[C@@H]1CCN(Cc2cccc3cnc(Nc4ccc(S(N)(=O)=O)cc4)nc23)C1 [Compound 938, (R)-4-(8-((3-(dimethylamino)pyrrolidin-1-yl)methyl)quinazolin-2-ylamino)benzenesulfonamide] |
|  |  | > 5.30 | > 5.30 | Cc1ccc(-c2ccc3cnc(Nc4ccc(S(N)(=O)=O)cc4)nc3c2)c(F)n1 [Compound 939, 4-(7-(2-fluoro-6-methylpyridin-3-yl)quinazolin-2-ylamino)benzenesulfonamide] |
|  |  | 5.00 to 5.30 | > 5.30 | CC(C)N1CCC(c2c(O)ccc3cnc(Nc4ccc(F)cc4)nc23)CC1 [Compound 940, 2-(4-fluorophenylamino)-8-(1-isopropylpiperidin-4-yl)quinazolin-7-ol] |
|  |  | > 5.30 | > 5.30 | NS(=O)(=O)c1ccc(Nc2ncc3cccc(-c4cncc(CN5CCCC5)c4)c3n2)cc1 [Compound 941, 4-(8-(5-(pyrrolidin-1-ylmethyl)pyridin-3-yl)quinazolin-2-ylamino)benzenesulfonamide] |
|  |  | > 5.30 | > 5.30 | NS(=O)(=O)c1ccc(Nc2ncc3cccc(-c4cncc(CN5CCOCC5)c4)c3n2)cc1 [Compound 942, 4-(8-(5-(morpholinomethyl)pyridin-3-yl)quinazolin-2-ylamino)benzenesulfonamide] |
|  |  | > 5.30 | > 5.30 | CN1CCN(Cc2cncc(-c3cccc4cnc(Nc5ccc(S(N)(=O)=O)cc5)nc34)c2)CC1 [Compound 943, 4-(8-(5-((4-methylpiperazin-1-yl)methyl)pyridin-3-yl)quinazolin-2-ylamino)benzenesulfonamide] |
|  |  | 5.00 to 5.30 | > 5.30 | NS(=O)(=O)c1ccc(Nc2ncc3cccc(-c4cncc(CN5CCNC(=O)C5)c4)c3n2)cc1 [Compound 944, 4-(8-(5-((3-oxopiperazin-1-yl)methyl)pyridin-3-yl)quinazolin-2-ylamino)benzenesulfonamide] |
|  |  | > 5.30 | > 5.30 | Cn1cc(-c2ccc3cnc(Nc4ccc(S(N)(=O)=O)cc4)nc3c2-c2ccc(NCCN3CCCC3)nc2)cn1 [Compound 945, 4-(7-(1-methyl-1H-pyrazol-4-yl)-8-(6-(2-(pyrrolidin-1-yl)ethylamino)pyridin-3-yl)quinazolin-2-ylamino)benzenesulfonamide] |
|  |  | > 5.30 | > 5.30 | CC(C)NCc1cncc(-c2cccc3cnc(Nc4ccc(S(N)(=O)=O)cc4)nc23)c1 [Compound 946, 4-(8-(5-((isopropylamino)methyl)pyridin-3-yl)quinazolin-2-ylamino)benzenesulfonamide] |
|  |  | 5.00 to 5.30 | > 5.30 | NC(=O)C1CCN(Cc2cncc(-c3cccc4cnc(Nc5ccc(S(N)(=O)=O)cc5)nc34)c2)CC1 [Compound 947, 1-((5-(2-(4-sulfamoylphenylamino)quinazolin-8-yl)pyridin-3-yl)methyl)piperidine-4-carboxamide] |
|  |  | > 5.30 | > 5.30 | NS(=O)(=O)c1ccc(Nc2ncc3cccc(-c4cncc(CNC5CCOCC5)c4)c3n2)cc1 [Compound 948, 4-(8-(5-((tetrahydro-2H-pyran-4-ylamino)methyl)pyridin-3-yl)quinazolin-2-ylamino)benzenesulfonamide] |
|  |  | 5.00 to 5.30 | > 5.30 | CC(=O)N1CCN(Cc2cncc(-c3cccc4cnc(Nc5ccc(S(N)(=O)=O)cc5)nc34)c2)CC1 [Compound 949, 4-(8-(5-((4-acetylpiperazin-1-yl)methyl)pyridin-3-yl)quinazolin-2-ylamino)benzenesulfonamide] |
|  |  | > 5.30 | > 5.30 | CN(Cc1cncc(-c2cccc3cnc(Nc4ccc(S(N)(=O)=O)cc4)nc23)c1)C1CCOCC1 [Compound 950, 4-(8-(5-((methyl(tetrahydro-2H-pyran-4-yl)amino)methyl)pyridin-3-yl)quinazolin-2-ylamino)benzenesulfonamide] |
|  |  | > 5.30 | > 5.30 | CN(C)[C@@H]1CCN(c2ccc(-c3cccc4cnc(Nc5ccc(S(N)(=O)=O)cc5)nc34)cn2)C1 [Compound 951, (R)-4-(8-(6-(3-(dimethylamino)pyrrolidin-1-yl)pyridin-3-yl)quinazolin-2-ylamino)benzenesulfonamide] |
|  |  | > 5.30 | > 5.30 | CN(C)[C@H]1CCN(c2ccc(-c3cccc4cnc(Nc5ccc(S(N)(=O)=O)cc5)nc34)cn2)C1 [Compound 952, (S)-4-(8-(6-(3-(dimethylamino)pyrrolidin-1-yl)pyridin-3-yl)quinazolin-2-ylamino)benzenesulfonamide] |
